Experimental data published in patent US9738642B2, “Triazolopyridine ether derivatives and their use in neurological and pyschiatric disorders” (BRISTOL-MYERS SQUIBB COMPANY, priority 2013, dated 2017).
Where a name gives a salt, the structure may show the parent alone.

biological target: T1, human mGluR2 (Homo sapiens, UniProt Q14416); experiment: mGluR2 cAMP assay; type: cell-based; settings: EC50 (nM), activity in mGluR2 cAMP assay, clonally expressed human mGluR2 in HEK293; 1 μM forskolin, 1 μM LY-341495, 30 min; CISBIO cAMP kit
T1 construct: expressed in transfected cells; host or cells: HEK293 clonal line
T1 sequence (Q14416 19-872): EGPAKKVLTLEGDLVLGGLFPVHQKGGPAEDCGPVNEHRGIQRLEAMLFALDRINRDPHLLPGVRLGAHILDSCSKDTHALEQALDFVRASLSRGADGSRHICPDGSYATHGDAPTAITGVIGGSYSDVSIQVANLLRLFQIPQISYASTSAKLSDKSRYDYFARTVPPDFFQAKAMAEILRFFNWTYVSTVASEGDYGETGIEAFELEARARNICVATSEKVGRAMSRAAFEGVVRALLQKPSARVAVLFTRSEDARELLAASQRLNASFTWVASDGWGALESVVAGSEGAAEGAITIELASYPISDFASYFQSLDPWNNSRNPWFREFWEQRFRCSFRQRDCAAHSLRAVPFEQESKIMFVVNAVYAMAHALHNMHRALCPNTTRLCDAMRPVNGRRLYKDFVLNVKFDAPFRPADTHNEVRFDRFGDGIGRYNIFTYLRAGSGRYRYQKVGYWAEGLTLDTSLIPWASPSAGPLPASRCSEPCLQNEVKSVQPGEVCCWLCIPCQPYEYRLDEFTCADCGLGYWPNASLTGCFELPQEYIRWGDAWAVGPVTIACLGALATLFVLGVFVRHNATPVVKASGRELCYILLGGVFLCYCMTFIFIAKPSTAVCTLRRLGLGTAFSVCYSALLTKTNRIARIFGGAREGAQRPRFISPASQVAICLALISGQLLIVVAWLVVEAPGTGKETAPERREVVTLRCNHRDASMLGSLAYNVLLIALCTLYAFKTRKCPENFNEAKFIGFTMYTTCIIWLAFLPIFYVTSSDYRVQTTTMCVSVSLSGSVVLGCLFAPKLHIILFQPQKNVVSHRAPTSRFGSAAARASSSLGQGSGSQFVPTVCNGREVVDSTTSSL

Row | SMILES | EC50
1 | Fc1ccc([C@H]2C[C@H](Oc3ccn4c(CC5CC5)nnc4c3C(F)(F)F)C2)cc1 [Example 96, 3-(Cyclopropylmethyl)-7-((1r,3r)-3-(4-fluorophenyl)cyclobutoxy)-8-(trifluoromethyl)-[1,2,4]triazolo[4,3-a]pyridine] | 0.4 nM

same assay, conditions: clonally expressed human mGluR2 in HEK293; 1 μM forskolin, 1 μM LY-341495, 30 min; CISBIO cAMP kit; read-out: EC50 (nM), activity in mGluR2 cAMP assay

Row | EC50 | SMILES
2 | 11 nM | Fc1cccc(F)c1COc1ccn2c(CC3CC3)nnc2c1Cl [Example 71, 8-Chloro-3-(cyclopropylmethyl)-7-(2,6-difluorobenzyloxy)-[1,2,4]triazolo[4,3-a]pyridine]
3 | 42 nM | COc1cccc(F)c1COc1ccn2c(CC3CC3)nnc2c1Cl [Example 72, 8-Chloro-3-(cyclopropylmethyl)-7-(2-fluoro-6-methoxybenzyloxy)-[1,2,4]triazolo[4,3-a]pyridine]
4 | 22 nM | FC(F)(F)Oc1ccc(Cl)cc1COc1ccn2c(CC3CC3)nnc2c1Cl [Example 73, 8-Chloro-7-(5-chloro-2-(trifluoromethoxy)benzyloxy)-3-(cyclopropylmethyl)-[1,2,4]triazolo[4,3-a]pyridine]
5 | 21 nM | COc1ccc(F)cc1COc1ccn2c(CC3CC3)nnc2c1Cl [Example 74, 8-Chloro-3-(cyclopropylmethyl)-7-(5-fluoro-2-methoxybenzyloxy)-[1,2,4]triazolo[4,3-a]pyridine]
6 | 29 nM | Clc1c(OCc2cccc(OC3CC3)c2)ccn2c(CC3CC3)nnc12 [Example 75, 8-Chloro-7-(3-cyclopropoxybenzyloxy)-3-(cyclopropylmethyl)-[1,2,4]triazolo[4,3-a]pyridine]
7 | 4.1 nM | Fc1cc(F)cc(COc2ccn3c(CC4CC4)nnc3c2Cl)c1 [Example 76, 8-Chloro-3-(cyclopropylmethyl)-7-(3,5-difluorobenzyloxy)-[1,2,4]triazolo[4,3-a]pyridine]
8 | 0.4 nM | Fc1cccc(Cl)c1CCOc1ccn2c(CC3CC3)nnc2c1C(F)(F)F [Example 80, 7-(2-Chloro-6-fluorophenethoxy)-3-(cyclopropylmethyl)-8-(trifluoromethyl)-[1,2,4]triazolo[4,3-a]pyridine]
9 | 1.5 nM | Fc1cccc(F)c1CCOc1ccn2c(CC3CC3)nnc2c1C(F)(F)F [Example 81, 3-(Cyclopropylmethyl)-7-(2,6-difluorophenethoxy)-8-(trifluoromethyl)-[1,2,4]triazolo[4,3-a]pyridine]
10 | 20 nM | Clc1cc(COc2ccn3c(CC4CC4)nnc3c2Cl)nc(Cl)n1 [Example 82, 8-Chloro-3-(cyclopropylmethyl)-7-((2,6-dichloropyrimidin-4-yl)methoxy)-[1,2,4]triazolo[4,3-a]pyridine]
11 | 6.1 nM | FC(F)(F)c1c(OCC(F)(F)c2ccccc2)ccn2c(CC3CC3)nnc12 [Example 83, 3-(Cyclopropylmethyl)-7-(2,2-difluoro-2-phenylethoxy)-8-(trifluoromethyl)-[1,2,4]triazolo[4,3-a]pyridine]
12 | 35 nM | CO[C@]1(c2ccc(F)cc2)CC[C@H](Oc2ccn3c(C4CC4)nnc3c2C(F)(F)F)CC1 [Example 92, 3-Cyclopropyl-7-((1s,4s)-4-(4-fluorophenyl)-4-methoxycyclohexyloxy)-8-(trifluoromethyl)-[1,2,4]triazolo[4,3-a]pyridine]
13 | 20 nM | CO[C@]1(c2ccc(F)cc2)CC[C@H](Oc2ccn3c(C4CC(F)(F)C4)nnc3c2C(F)(F)F)CC1 [Example 93, 3-(3,3-Difluorocyclobutyl)-7-((1s,4s)-4-(4-fluorophenyl)-4-methoxycyclohexyloxy)-8-(trifluoromethyl)-[1,2,4]triazolo[4,3-a]pyridine]
14 | 1 nM | O[C@]1(c2ccc(F)cc2)CC[C@H](Oc2ccn3c(CC4CC4)nnc3c2C(F)(F)F)CC1 [Example 95, (1s,4s)-4-(3-(Cyclopropylmethyl)-8-(trifluoromethyl)-[1,2,4]triazolo[4,3-a]pyridin-7-yloxy)-1-(4-fluorophenyl)cyclohexanol, TFA salt]
15 | 1 nM | CO[C@]1(c2ccc(F)cc2)CC[C@H](Oc2ccn3c(CC(F)(F)F)nnc3c2C(F)(F)F)CC1 [Example 97, 7-((1s,4s)-4-(4-Fluorophenyl)-4-methoxycyclohexyloxy)-3-(2,2,2-trifluoroethyl)-8-(trifluoromethyl)-[1,2,4]triazolo[4,3-a]pyridine]
16 | 0.5 nM | [2H]C([2H])([2H])O[C@]1(c2ccc(F)cc2)CC[C@H](Oc2ccn3c(CC4CC4)nnc3c2C(F)(F)F)CC1 [Example 99, 3-(Cyclopropylmethyl)-7-((1s,4s)-4-(4-fluorophenyl)-4-(methoxy-d3)cyclohexyloxy)-8-(trifluoromethyl)-[1,2,4]triazolo[4,3-a]pyridine]

Row | SMILES | EC50
17 | COC1(c2ccc(F)cc2)CCC(Oc2ccn3c([C@H]4C[C@@H]4F)nnc3c2C(F)(F)F)CC1 (stereo partly drawn) [Example 90, 3-((1R,2S)-2-Fluorocyclopropyl)-7-((1s,4s)-4-(4-fluorophenyl)-4-methoxycyclohexyloxy)-8-(trifluoromethyl)-[1,2,4]triazolo[4,3-a]pyridine] | 19 nM
18 | COC1(c2ccc(F)cc2)CCC(Oc2ccn3c([C@@H]4C[C@H]4F)nnc3c2C(F)(F)F)CC1 (stereo partly drawn) [Example 91, 3-((1S,2R)-2-Fluorocyclopropyl)-7-((1s,4s)-4-(4-fluorophenyl)-4-methoxycyclohexyloxy)-8-(trifluoromethyl)-[1,2,4]triazolo[4,3-a]pyridine] | 83 nM
